# According to patent publication US20190029987A1, “DIMETHYL FUMARATE (DMF) FOR PREVENTION OR TREATMENT OF GOUT, ACNE, DIABETES, VITILIGO AND/OR PYODERMA GANGRENOSUM” (UNIVERSITAT ZURICH, priority 2016, published 2019):
# Counter-ions that a name gives are not always drawn.
# How the values were obtained:
# Nrf2 [1] = test: UVB-induced Nrf2 degradation in HPKs (Western blot); format: cell-based, human; conditions: harvested after 1 h, FIG. 7D
# Text: Next, the inventors investigated the activity of Nrf2 upon activation of the NLRP3 inflammasome, since inflammasome activation is ROS-dependent. […] This is surprising, since UVB irradiation is a strong inducer of ROS production and it can be anticipated that the cells would benefit from Nrf2 activation. UVB-induced secretion by HPKs requires expression of NLRP1 and NLRP3 [21]. Both nigericin and MSU crystals are considered as “true” NLRP3 activators, but HPKs cannot phagocytose MSU crystals. Therefore, the inventors treated HPKs with nigericin only and THP-1 cells with either of these NLRP3 activators. […] Therefore, NLRP3 inflammasome activation most likely induces Nrf2 protein degradation. […] However, inflammasome activation-induced Nrf2 degradation was blocked upon ablation of ASC or NLRP3 expression (FIG. 4G) and upon treatment of cells with the ROS blocker PDTC or the Ca2+ chelator BAPTA-AM (Supplementary FIG. 2D). […] However, inflammasome function was not impaired, as reflected by normal processing of pro-IL-18 (FIG. 4H). Although Keap1 expression is partially dispensable for Nrf2 degradation by inflammasome activation, the transcription factor is directed to the proteasome under these conditions, since Nrf2 degradation was inhibited by the proteasome inhibitor MG132 (FIG. 4I and FIG. 7D).
# (§1) FIG. 7: (A-C) HPKs were transfected with siRNAs for 3 d as indicated. Scrambled (scr) siRNA and siRNA targeting the unrelated vascular endothelial growth factor (VEGF) served as controls. Western blots of (A) total lysates or (B) nuclear and cytoplasmic lysates and (C) qRT-PCR for expression of target gene expression. (D) HPKs were treated with MG132 (1 μM), PDTC (500 μM) or BAPTA-AM (12.5 μM) for 10 min and harvested (before UV) or irradiated with UVB and harvested after 1 h. Western blots showing expression of Nrf2. (E) Differentiated and primed THP-1 cells were pretreated with cycloheximide (CHX, 30 μg/ml) for 1 h before priming cells with upLPS overnight. Western blots show expression of the indicated proteins. […] Statistics: (C) Mann-Whitney test, related to scr control. *P≤0.05
# NLRP3 inflammasome [2] = test: UVB irradiation-induced inflammasome activation in HPKs (IL-1β ELISA, Western blot); format: cell-based, human; conditions: FIG. 2A, 8A-C; for inflammasome activation (processed caspase-1, mature IL-1β and -18 in the supernatant): different doses, UVB 30 min later, harvested after 5 h
# Text: (§2) To determine the effects of Nrf2 activating compounds on inflammasome activation, the inventors treated keratinocytes with different doses of SFN, tBHQ, DMF or 15d-PGJ2 and irradiated the cells with UVB.
# (§3) SFN, DMF, 15d-PGJ2, tBHQ, zymosan, ATP, poly(dA:dT), cycloheximide, puromycin, and doxycycline were purchased from Sigma (Munich, Germany), nigericin from Enzo Life Sciences (New York, US-NY), MG132 from Calbiochem (Darmstadt, Germany), and blasticidin from Invivogen (Toulouse, France). Release of IL-1p was determined by ELISA according the instructions of the manufacturer (R&D Systems, Minneapolis, US-MN). MSU crystals were prepared by crystallisation of a supersaturated solution of uric acid under mildly basic conditions. Briefly, uric acid was added to a solution of NaOH, the solution was boiled until the uric acid was dissolved and passed through a filter. NaCl was added and crystallisation was performed at 4° C. Crystals were filtered, then dried using a speedvac, weighted and autoclaved.
# (§4) (A) HPKs were treated with the indicated concentrations of the Nrf2 activating compound tBHQ irradiated with UVB 30 min later and harvested after 5 h. ELISA measurements were performed for quantification of IL-1β secretion and Western blots for analysis of expression and activation of the indicated proteins. Specific bands are marked with an asterisk. (B) THP-1 cells were differentiated with PMA (27 nM) for 3 d, primed with upLPS (100 ng/ml) overnight, and 1 h before inflammasome activation (5 μM nigericin, 150 μg/ml MSU) treated with SFN (10 μM), 15-PGJ2 (10 μM) or DMF (50 μM) (15-PG: 15-PGJ2). Cells and supernatants were harvested after 5 h and analysed for inflammasome activation by ELISA measurement of IL-1p and Western blots as indicated. (C) Freshly isolated PBMCs from human blood were primed overnight with upLPS (100 ng/ml) and treated with SFN (10 μM), tBHQ (10 μM), DMF (50 μM) or 15-PGJ2 (10 μM) 1 h before inflammasome activation by nigericin (5 μM). ELISA measurement for secretion of IL-1β as readout for inflammasome activation was performed after 5 h. (D) HPKs or (E) differentiated and primed THP-1 cells were pretreated with cycloheximide (CHX, 30 μg/ml) to block protein synthesis for 1 h before SFN (10 μM) was added to the cells and after an additional hour the inflammasome was activated by (D) irradiation with UVB or (E) treatment with nigericin (5 μM). Cells and supernatants were harvested after (D) 6 h or (E) 3.5 h and analysed for inflammasome activation by Western blot as indicated. (A-E) Representative experiments performed at least three times are shown. Statistics: (A-C) Error bars represent the mean±SD of a representative experiment performed in triplicates. One-way ANOVA was performed. **P≤0.01; ***P≤0.001.
# FIG. 8: (A-C) HPKs were treated with the Nrf2 activating compounds (A) SFN, (B) DMF, and (C) 15d-PGJ2, irradiated with UVB 30 min later and harvested after 5 h. Analogous experiment as described in FIG. 2A for tBHQ. (D) THP-1 cells were differentiated with TPA for 3 d and primed with LPS overnight. Then, cells were treated with the solvent DMSO, SFN (10 μM) or 15-PGJ2 (10 μM). After 30 min the inflammasome was activated by nigericin treatment and cells and supernatants were harvested after 2.5 h. Western blots showing prolL-1β and mature IL-1p in the lysate and supernatant. 20% lysate and supernatant of a 12 well was used, respectively, in order to allow a comparison. IL-1β was quantified in the supernatant by ELISA and cytotoxicity by LDH release.
# NLRP3 inflammasome [3] = target: T1, NLRP3 inflammasome (Homo sapiens, UniProt Q96P20); test: Nigericin-induced IL-1β secretion in human PBMCs (ELISA); format: cell-based; conditions: 5 h, FIG. 2C
# T1 construct: endogenous in cells
# Text: as §2, §3, §4
# [4] = system: Nrf2 target genes (GCLC, GCLM, NAD(P)H dehydrogenase, quinone 1); test: Nrf2 target gene expression in HPKs (qRT-PCR); format: cell-based, human; conditions: RNA after 8 h, FIG. 6G
# Procedure: (§5) Human primary keratinocytes (HPKs) constitutively express pro-IL-1β and inflammasome proteins.
# qRT-PCR was performed with the LightCycler 480 SYBR Green Master or the FastStart Universal SYBR Green Master (both Roche, Rotkreuz, Switzerland) using total cellular RNA. Specific primer pairs (Supplementary Table 2) were designed to generate an approximately 150 bp fragment flanking an intron-exon border of the corresponding gene. The LightCycler 480 96-well version (ROCHE, Rotkreuz, Switzerland) or the ViiA 7 Real-Time FOR System (Life Technologies, Carlsbad, US-CA) was used for reaction and detection according the instructions of the manufacturer.
# (§6) FIG. 6: Bone marrow (BM) cells were isolated from Nrf2-deficient mice and wt litterfnates and differentiated into dendritic cells (DCs). (A, B) After priming with upLPS overnight, BMDCs were treated with the NLRP3 inflammasome activators nigericin (20 μM), zymosan (20 μg/ml), MSU (150 μg/ml), ATP (5 mM) or transfected with poly(dA:dT) (1 μg/ml) for activation of the AIM2 inflammasome. After 6 h, supernatants were analysed for secretion of IL-1β by (A) ELISA or (B) Western blot. Mock-treated but primed BMDCs were analysed for expression of inflammasome proteins and pro-IL-1β at the (C) mRNA level by qRT-PCR or at the (D) protein level by Western blot. (B, D) Duplicates from two individual mice per genotype are shown (biological replicates). (E-G) HPKs were treated with the Nrf2 activators SFN (10 μM), tBHQ (10 μM), DMF (50 μM) and 15d-PGJ2 (10 μM). After 1 h, the cells were harvested and analysed for expression of the indicated proteins using total cell lysates (E) or cytoplasmic and nuclear lysates (F). Western blots for the nuclear protein lamin NC and the cytoplasmic protein α-tubulin served as controls. Specific bands are marked with an asterisk. (G) Total RNA was isolated after 8 h and qRT-PCR was performed for quantification of expression of the Nrf2 target genes glutamate-cysteine ligase, catalytic subunit (GCLC), glutamate-cysteine ligase, modifier subunit (GCLM), and NAD(P)H dehydrogenase, quinone 1 (N001). (A-G) Representative experiments performed at least three times are shown. […] Mann-Whitney test was performed. […] Mann-Whitney test was performed. *P≤0.05
# Nrf2 [5] = test: Nrf2 stabilisation and nuclear accumulation in human primary keratinocytes (Western blot); format: cell-based; conditions: HPKs, FIG. 6E,F; for expression of the other Nrf2 complex proteins Keap1, Cul3, and Rbx1: 1 h; for stabilisation and nuclear accumulation of Nrf2 protein: harvested after 1 h
# Procedure: as §5, §6
# NLRP3 inflammasome [6] = target: T1, NLRP3 inflammasome; test: Inflammasome activation by nigericin/MSU in differentiated, primed THP-1 cells (IL-1β ELISA, Western blot); format: cell-based; conditions: THP-1, 50 μM 1 h before 5 μM nigericin or 150 μg/ml MSU, 5 h, FIG. 2B
# Text: as §2, §3, §4
# (A-C) HPKs were irradiated with (A) UVB or treated with (B) nigericin (5 μM) and cells and supernatants were harvested at different time points as indicated. Western blots for expression and activation of the indicated proteins. Specific bands are marked with an asterisk. (C) Expression of Nrf2 and Nrf2 target genes was determined by qRT-PCR. (D, E) THP-1 cells were differentiated with PMA (27 nM) for 3 d, primed with upLPS (100 ng/ml) overnight and treated with nigericin (5 μM) or MSU (150 μg/ml). Cells and supernatants were harvested at different time points as indicated and analysed for (D) expression and activation of the proteins as indicated by Western blot and (E) expression of Nrf2 and Nrf2 target genes by qRT-PCR. (F) HPKs were transfected with specific siRNAs as indicated (scr: scrambled, c1: caspase-1, K1; Keap1), 2 d later irradiated with UVB or treated with nigericin (5 μM). Cells were harvested after 1 h or 5 h, and lysates were analysed for the expression of the indicated proteins by Western blot.
# [7] = system: Monosodium urate (MSU) crystal-induced peritonitis; test: MSU crystal-induced peritonitis mouse model (neutrophils in peritoneal lavage); format: in vivo; conditions: mice, oral gavage 20 mg/kg for six days, 6 h post 2 mg MSU crystals, vs control mice, n=7, FIG. 3E
# Procedure: (§7) Monosodium urate (MSU) crystal-induced peritonitis is a mouse model of inflammation and gout, which is dependent on IL-1, IL-1R1, MyD88 and the NLRP3 inflammasome. […] The inventors chose a different way of administration and supplied mice with SFN or DMF by oral gavage to determine a potential anti-inflammatory activity of the Nrf2 activators in vivo (FIG. 3). […] The inventors analysed the cellular infiltrate in the peritoneum 6 h post injection of MSU crystals.
# Mice were challenged with 2 mg of MSU crystals for 6 hours as previously described (Chen et a Olin Invest 2006. 116: 2262-2271).
# Mice treated by gavage with (A, B, C) SFN (25 mg/kg) in PBS or (D, E, F) DMF (20 mg/kg) in H2O containing 0.08% methocel and 10% DMSO, vehicle-treated mice served as control. Regime for (A) SFN or (D) DMF treatment. Peritonitis was induced by peritoneal injection of 2 mg MSU crystals, (B, E) After 6 h the number of neutrophils of the peritoneal lavage was determined by flow cytornetry. […] Statistics: Student's t-test. (B, C) n≥3, (E, F) n=7. *P≤0.05; **P≤0.01
# [8] = system: Nrf2 target genes Gstp1, Nqo1 and Srxn1; test: Nrf2 target gene expression in liver of treated mice (qRT-PCR); format: in vivo, mouse; conditions: oral gavage 20 mg/kg, FIG. 3F
# Procedure: as §7
# qRT-PCR was performed with the LightCycler 480 SYBR Green Master or the FastStart Universal SYBR Green Master (both Roche, Rotkreuz, Switzerland) using total cellular RNA. Specific primer pairs (Supplementary Table 2) were designed to generate an approximately 150 bp fragment flanking an intron-exon border of the corresponding gene. […]
# Mice treated by gavage with (A, B, C) SFN (25 mg/kg) in PBS or (D, E, F) DMF (20 mg/kg) in H2O containing 0.08% methocel and 10% DMSO, vehicle-treated mice served as control. […] Peritonitis was induced by peritoneal injection of 2 mg MSU crystals, (B, E) After 6 h the number of neutrophils of the peritoneal lavage was determined by flow cytornetry. (C, F) At the same time, the liver was isolated and analysed for the expression of the Nrf2 target genes Gstp1, Nqo1 and Srxn1 by qRT-PCR. […]
# THP-1 cells = test: Block of protein synthesis in THP-1 cells (Western blot); format: cell-based, human; conditions: THP-1, 30 μg/ml for 1 h before priming with upLPS overnight, FIG. 7E
# Procedure: To determine the effects of Nrf2 activating compounds on inflammasome activation, the inventors treated keratinocytes with different doses of SFN, tBHQ, DMF or 15d-PGJ2 and irradiated the cells with UVB. […] As the Nrf2 activators were added to the cells only 15 to 30 min prior to inflammasome activation, it is unlikely that Nrf2 target genes are involved in inflammasome inhibition.
# as §1
# T1 sequence (Q96P20 whole entry): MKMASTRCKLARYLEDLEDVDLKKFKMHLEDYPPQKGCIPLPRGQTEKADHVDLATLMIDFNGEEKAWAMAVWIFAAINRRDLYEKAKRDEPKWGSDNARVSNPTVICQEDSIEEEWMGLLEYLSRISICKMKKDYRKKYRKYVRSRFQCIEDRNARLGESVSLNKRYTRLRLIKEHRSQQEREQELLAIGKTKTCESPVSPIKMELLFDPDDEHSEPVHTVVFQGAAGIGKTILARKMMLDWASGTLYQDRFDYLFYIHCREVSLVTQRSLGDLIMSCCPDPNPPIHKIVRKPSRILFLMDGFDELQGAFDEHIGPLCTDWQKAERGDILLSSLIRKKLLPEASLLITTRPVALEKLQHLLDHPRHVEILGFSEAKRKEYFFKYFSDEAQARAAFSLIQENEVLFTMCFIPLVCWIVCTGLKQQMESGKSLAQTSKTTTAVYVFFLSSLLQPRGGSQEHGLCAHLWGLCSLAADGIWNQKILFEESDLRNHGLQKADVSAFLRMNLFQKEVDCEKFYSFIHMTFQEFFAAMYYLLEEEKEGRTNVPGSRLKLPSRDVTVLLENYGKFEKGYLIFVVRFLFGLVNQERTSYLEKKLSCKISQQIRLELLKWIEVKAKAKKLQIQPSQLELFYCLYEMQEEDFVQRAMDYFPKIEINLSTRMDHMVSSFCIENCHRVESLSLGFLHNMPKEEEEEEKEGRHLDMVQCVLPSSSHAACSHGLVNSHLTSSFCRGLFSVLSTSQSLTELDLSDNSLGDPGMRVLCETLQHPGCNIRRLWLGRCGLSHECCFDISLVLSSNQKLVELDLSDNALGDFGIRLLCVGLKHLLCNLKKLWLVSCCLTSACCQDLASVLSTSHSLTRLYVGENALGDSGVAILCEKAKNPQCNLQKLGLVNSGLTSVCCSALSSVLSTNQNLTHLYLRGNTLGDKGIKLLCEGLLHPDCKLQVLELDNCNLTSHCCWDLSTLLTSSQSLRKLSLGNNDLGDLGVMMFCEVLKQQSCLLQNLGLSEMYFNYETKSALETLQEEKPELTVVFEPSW
smiles,measurement,setting,value
CC(=O)OCOC(=O)CN(CC(=O)OCOC(C)=O)c1ccccc1OCCOc1ccccc1N(CC(=O)OCOC(C)=O)CC(=O)OCOC(C)=O [BAPTA-AM],inflammasome activation-induced Nrf2 degradation,Nrf2 [1]; 12.5 μM for 10 min,blocked
"COC(=O)/C=C/C(=O)OC [DMF, dimethyl fumarate]",relative efficiency/potency of inflammasome inhibition between compounds,"NLRP3 inflammasome [2]; UVB, same concentrations",less potent in inflammasome inhibition than SFN
same,"inflammasome activation (processed caspase-1, mature IL-1β and -18 in the supernatant)",NLRP3 inflammasome [2],inhibited inflammasome activation in a dose-dependent manner
same,IL-1β secretion,NLRP3 inflammasome [3]; 50 μM 1 h before nigericin (5 μM),inhibited IL-1β secretion
same,expression of classical Nrf2 target genes,[4]; 50 μM,induction of classical Nrf2 target genes
same,"expression of the other Nrf2 complex proteins Keap1, Cul3, and Rbx1",Nrf2 [5]; 50 μM,not affected
same,stabilisation and nuclear accumulation of Nrf2 protein,Nrf2 [5]; 50 μM,fast and robust stabilisation and nuclear accumulation of Nrf2 protein
same,IL-1β secretion,NLRP3 inflammasome [6],inhibited IL-1β secretion
same,number of neutrophils in the peritoneum,[7],significantly reduced
same,expression of Nrf2 target genes in the liver,[8],increased mRNA expression
N.S=C(S)N1CCCC1 [PDTC],inflammasome activation-induced Nrf2 degradation,Nrf2 [1]; 500 μM for 10 min,blocked
C[C@@H]1C[C@@H]([C@H](O)CC2CC(=O)NC(=O)C2)C(=O)[C@@H](C)C1 [cycloheximide],protein synthesis,THP-1 cells,blocks protein synthesis
"CC(C)(C)c1cc(O)ccc1O [tBHQ, tert-butylhydroquinone]","inflammasome activation (processed caspase-1, mature IL-1β and -18 in the supernatant)",NLRP3 inflammasome [2],inhibited inflammasome activation in a dose-dependent manner
same,IL-1β secretion,NLRP3 inflammasome [3]; 10 μM 1 h before nigericin (5 μM),inhibited IL-1β secretion
same,expression of classical Nrf2 target genes,[4]; 10 μM,induction of classical Nrf2 target genes
same,"expression of the other Nrf2 complex proteins Keap1, Cul3, and Rbx1",Nrf2 [5]; 10 μM,not affected
same,stabilisation and nuclear accumulation of Nrf2 protein,Nrf2 [5]; 10 μM,fast and robust stabilisation and nuclear accumulation of Nrf2 protein
